Test system: DuNN MTAP KO cells
Assay: In vivo pharmacodynamic study in C3H mouse model of tibial orthotopic xenograft with DuNN MTAP KO cells
Conditions: for Tumor volume (mean): tibial orthotopic DuNN MTAP KO tumor, compound D 1 mg/kg PO QD, PD-1 antibody 5 mg/kg I.P. QW, n=6
Procedure: Example 1: In Vivo Pharmacodynamic Study of Compound D in C3H Mouse Model of Tibial Orthotopic Xenograft with DuNN MTAP KO Cells
Cell culture: […] DuNN MTAP KO cells (provided by the Experimental Animal Center of Shanghai First People's Hospital) were cultured in vitro monolayer under the conditions of adding 10% fetal bovine serum and 1% Antibiotic-Antimycotic to DMEM medium, and culturing in a 5% CO2 incubator at 37° C. Pancreatin-EDTA was used twice a week for routine digestion and passage. When the cell saturation is 80%-90% and the number of cells reached the requirement, the cells were collected, counted, and inoculated.
Animals: C3H normal mice, female, 4-6 weeks old, weighing 18-22 g. A total of 30 animals were required (24 enrolled, surplus).
Tumor inoculation: DUNN cells were digested with 0.25% pancreatin-EDTA solution to make them into a single cell suspension, washed with PBS buffer and the cell density was adjusted to 1×10^7/ml for further use. On the day of the experiment, mice were intraperitoneally injected with 0.5% sodium pentobarbital solution at a dose of 40 mg/kg to anesthetize them. A bone hole with a diameter of about 1 mm was drilled in the upper end of the right hindlimb tibia with a 1 ml syringe to reach the marrow cavity. Be careful not to penetrate the contralateral cortical bone and cause fractures or bleeding. A 1 ml syringe and a 25 G needle were used to draw the DUNN cell suspension and it was slowly injected into the tibial bone marrow cavity of the experimental group mice at a dose of 30 μl. Be careful not to cause cell reflux or leakage. After injection, the surgical field was disinfected with 75% alcohol, and the mice were returned to their cages, covered with sterile dressings, kept warm until they woke up, and then continued to be housed for observation. Randomized dosing began when the average tumor volume reached about 150 mm^3. At the end of the experiment, mice were intraperitoneally injected with 0.5% sodium pentobarbital solution at a dose of 120 mg/kg to euthanize them. Their tibia and tumor tissues were removed, fixed with 10% formaldehyde, paraffin sections were made, stained with HE, and the histological morphology and invasion of the tumors were observed under a microscope. The expression of proliferation indicators such as Ki-67 and PCNA in tumor cells was detected by immunohistochemistry.
Administering volume: 10 μL/g based on the weight of mice. If the weight loss exceeds 15%, stop administering immediately and resume it after the weight loss returns to less than 10%.
Animal grouping: Animals were weighed before administration and tumor volumes were measured. Randomized grouping was based on tumor volumes (randomized block design).
Experimental indicators: were used to examine whether tumor growth was inhibited, delayed or cured. The tumor diameter was measured twice a week with a vernier caliper. The calculation equation for tumor volumes is: V=0.5a×b^2, where a and b represent the major and minor diameters of the tumor, respectively.
The antitumor efficacy of the compound was evaluated by TGI (%) or tumor proliferation rate T/C (%). TGI (%) reflects the tumor growth inhibition. Calculation of TGI (%): TGI (%)=[1−(average tumor volume at the end of administering in a treatment group-average tumor volume at the start of administering in this treatment group)/(average tumor volume at the end of treatment in the solvent control group-average tumor volume at the start of treatment in the solvent control group)]×100%.
Tumor proliferation rate T/C (%): The calculation equation is as follows: T/C (%)=Ti/Vi×100%. Where Vi is the average tumor volume of the solvent control group at a certain measurement, and Ti is the average tumor volume of the treatment group at the same measurement. […]

## CN(C(=O)c1cc2c(cc1F)nc(N)c1cncn12)[C@@H]1COc2cc(C(F)(F)F)ccc21 [Compound D]
25-day study, compound D 1 mg/kg oral once daily, anti-PD-1 antibody 5 mg/kg intraperitoneal, C3H mice, DUNN tibial orthotopic model
  tumor growth inhibition (TGI): 30.9%
Day 0, C3H mice
  Tumor volume (mean): 21.6 mm^3
Day 4, C3H mice
  Tumor volume (mean): 35.7 mm^3
Day 7, C3H mice
  Tumor volume (mean): 41.3 mm^3
Day 10, C3H mice
  Tumor volume (mean): 52.2 mm^3
Day 14, C3H mice
  Tumor volume (mean): 68.7 mm^3
Day 18, C3H mice
  Tumor volume (mean): 85.2 mm^3
Day 21, C3H mice
  Tumor volume (mean): 136.9 mm^3
Day 25, C3H mice
  Tumor volume (mean): 225.6 mm^3
one-way ANOVA, 25-day study, same doses
  statistical significance (P) vs. control: did not reach statistical significance

From patent US20260174862A1, “PHARMACEUTICAL COMPOSITION COMPRISING PRMT5 INHIBITOR AND PD-1/PD-L1 INHIBITOR” (APEIRON THERAPEUTICS (HONG KONG) LTD., priority 2024, published 2026)
